From a flash point compilation (Sun et al. 2020)

| flash point [°C] | SMILES |
| --- | --- |
| 60.00 | CCCCC=C[Si](Cl)(Cl)Cl [1-Hexenyltrichlorosilane] |
| 43.00 | CCC[SiH](CCC)CCC [Tri-n-propylsilane] |
| 20.00 | C[Si](C)(Cl)CCC(F)(F)F [Chlorodimethyl(3,3,3-trifluoropropyl) silane] |
| 67.00 | C[SiH](C)O[Si](O[SiH](C)C)(O[SiH](C)C)O[SiH](C)C [Tetrakisdimethylsiloxysilane] |
| 26.00 | C[Si](C)(C)S[Si](C)(C)C [Hexamethyldisilthiane] |
| 90.00 | CC(CCl)C[Si](C)(Cl)Cl (centres undefined) [3-Chloro-2-methylpropylmethyldichlorosilane] |
| 100.00 | CCCCCCCC[Si](OCC)(OCC)OCC [Octyltriethoxysilane] |
| 29.00 | C[Si](C)(C)C1C=CC=C1 [Cyclopentadienyltrimethylsilane] |
| 96.00 | CO[Si](CCCNCCN)(OC)OC [Aminoethylaminopropyltrimethoxysilane] |
| 80.00 | C=C[Si](OCCOC)(OCCOC)OCCOC [Vinyltris(methoxyethoxy)silane] |
| 69.00 | ClC[Si](Cl)(Cl)Cl [Trichloro(Chloromethyl) silane] |

remark: another data set of the same source

| flash point [°C] | SMILES |
| --- | --- |
| 77.00 | CCCCCCCO [heptan-1-ol] |
| 4.00 | CCCCCC(C)C [2-methylheptane] |

remark: another data set of the same source

| flash point [°C] | SMILES |
| --- | --- |
| 141 | C=CCCCCCCCCCCCCCCC [1-heptadecene] |
| 92 | C=CCCCCCCCCCCC [1-tridecene] |
| 24 | CC#CCCCCC [2-octyne] |

remark: another data set of the same source

| flash point [°C] | SMILES |
| --- | --- |
| 135.00 | c1ccc(COCc2ccccc2)cc1 [phenylmethoxymethylbenzene] |
| 113.00 | OC(CBr)CCBr (centres undefined) [1,4-dibromobutan-2-ol] |
| 51.00 | Brc1cccnc1 [3-bromopyridine] |
| 120.00 | CC(C)C(=O)OCC(C)(C)C(O)C(C)C (centres undefined) |
| -73.30 | CC=CC [but-2-ene] |
| 70.00 | CCN(CC)C(C)=O [N,N-diethylacetamide] |
| -116.00 | C=C(C)C [2-methylprop-1-ene] |
| 73.00 | CCCCCCCO [heptan-1-ol] |
| 29.00 | OCC(F)(F)F [2,2,2-trifluoroethanol] |
| 147.00 | OCCCCCCO [hexane-1,6-diol] |
| 103.00 | CO[C@H]1CO[C@H]2[C@@H]1OC[C@H]2OC |
| 60.00 | CC(C)CC(C)(C)CO [2,2,4-trimethylpentan-1-ol] |
| 148.90 | OC[C@@H](O)[C@@H](O)[C@H](O)[C@@H](O)CO [(2R,3R,4R,5S)-hexane-1,2,3,4,5,6-hexol] |
| 152.00 | OCC#CCO [but-2-yne-1,4-diol] |
| 57.20 | NCCN [ethane-1,2-diamine] |
| -4.00 | C#CCC(C)C [4-methylpent-1-yne] |
| 40.00 | CCC(O)CC [pentan-3-ol] |

| flash point [°C] | SMILES |
| --- | --- |
| 60.00 | CCN(C=O)CC [N,N-diethylformamide] |
| 113.00 | CC(C)(CO)[C@@H](O)C(=O)NCCCO |
| 127.00 | NCCOCCO [2-(2-aminoethoxy)ethanol] |
| -18.00 | C/C=C\CC [(Z)-pent-2-ene] |
| 21.50 | CC1CNCC(C)C1 (centres undefined) [3,5-dimethylpiperidine] |
| 143.33 | CC(O)COC(C)COC(C)CO (centres undefined) [2-[2-(2-hydroxypropoxy)propoxy]propan-1-ol] |
| -34.44 | COC(C)(C)C [2-methoxy-2-methylpropane] |
| 0.00 | C1=CCC=C1 [cyclopenta-1,3-diene] |
| 123.89 | OCCCOCCCO [3-(3-hydroxypropoxy)propan-1-ol] |
| 109.00 | CCC(C)(O)C#CC(C)(O)CC (centres undefined) [3,6-dimethyloct-4-yne-3,6-diol] |
| 161.00 | O=C(OCC1CCC(COC(=O)c2ccccc2)CC1)c1ccccc1 (centres undefined) |
| 145.00 | O=C1CCCN1C1CCCCC1 [1-cyclohexyl-2-pyrrolidinone] |
| 73.90 | CC(C)(O)C#CC(C)(C)O [2,5-dimethylhex-3-yne-2,5-diol] |
| 103.00 | Cc1cccc(N)n1 [6-methyl-2-pyridinamine] |
| 126.00 | CC(O)CNCC(C)O (centres undefined) [1-(2-hydroxypropylamino)propan-2-ol] |
| 128.00 | OC/C=C/CO [(E)-but-2-ene-1,4-diol] |

| SMILES | flash point [°C] |
| --- | --- |
| N#Cc1cccnc1 [3-pyridinecarbonitrile] | 84.00 |
| C1CCC(NC2CCCCC2)CC1 [N-cyclohexylcyclohexanamine] | 103.00 |
| CC(O)CO (centres undefined) [propane-1,2-diol] | 104.44 |
| CC(C)c1ccccc1 [isopropylbenzene] | 46.00 |
| N#Cc1ccncc1 [4-pyridinecarbonitrile] | 88.00 |
| ClCOCCl [chloro-(chloromethoxy)methane] | 19.00 |
| N#Cc1ccccn1 [2-pyridinecarbonitrile] | 89.00 |
| CCCCCCCN [heptan-1-amine] | 44.00 |
| NCc1ccccc1 [phenylmethanamine] | 72.00 |
| C=CCOCC1CO1 (centres undefined) [2-(allyloxymethyl)oxirane] | 48.00 |

remark: another data set of the same source

| flash point [°C] | SMILES |
| --- | --- |
| -4 | C[C@@H]1CCC[C@@H]1C [cis-1,2-dimethylcyclopentane] |
| -12 | CCC(CC)CC [3-ethylpentane] |
| 48 | CCCCC1CCCCC1 [n-butylcyclohexane] |
| 6 | C[C@H]1CC[C@H](C)CC1 [trans-1,4-dimethylcyclohexane] |
| -10 | C=C(CC)CCC [2-ethyl-1-pentene] |
| -24 | CC(C)C(C)(C)C [2,2,3-trimethylbutane] |
| 21 | C=CC1CCCCC1 [vinylcyclohexane] |
| -10 | C=CCCC(C)C [5-methyl-1-hexene] |
| -47 | C/C=C\CC [cis-2-pentene] |
| 58 | CCc1ccccc1C(C)C [1-ethyl-2-isopropylbenzene] |
| 14 | C/C=C/CCCCC [trans-2-octene] |
| -18 | C=CC=C(C)C [4-methyl-1,3-pentadiene] |
| -12 | C=CCC(C)(C)C [4,4-dimethyl-1-pentene] |
| -4 | C#CCCC(C)C [5-methyl-1-hexyne] |
| 135 | C=CCCCCCCCCCCCCCCC [1-heptadecene] |
| 117 | CCCCCCCCCc1ccccc1 [n-nonylbenzene] |
| 18 | C=CCCCCC(C)C [7-methyl-1-octene] |
| 41 | CCCCCCC(C)CC (centres undefined) [3-methylnonane] |
| -24 | C#CCC(C)C [4-methyl-1-pentyne] |
| 31 | CCCC(C)(C)C(C)(C)C [2,2,3,3-tetramethylhexane] |
| 9 | CC/C=C/CCCC [trans-3-octene] |
| -6 | CC/C=C/CCC [trans-3-heptene] |
| -29 | C=CC(C)(C)C [3,3-dimethyl-1-butene] |
| -4 | CCC1CCCC1 [ethylcyclopentane] |
| 5 | CCCC(C)C(C)C (centres undefined) [2,3-dimethylhexane] |
| -15 | C=CCC(C)CC (centres undefined) [4-methyl-1-hexene] |
| 79 | C=CCCCCCCCCCCC [1-tridecene] |

| flash point [°C] | SMILES |
| --- | --- |
| 16 | CC(C)(C)CCC(C)(C)C [2,2,5,5-tetramethylhexane] |
| -45 | C/C=C/CC [trans-2-pentene] |
| 34 | CCC(C)CCCC(C)C (centres undefined) [2,6-dimethyloctane] |
| -16 | CC1(C)CCCC1 [1,1-dimethylcyclopentane] |
| 5 | CCCCCC(C)C [2-methylheptane] |
| -28 | CC/C=C\CC [cis-3-hexene] |
| -16 | C1=CCCC=C1 [1,3-cyclohexadiene] |
| 8 | C[C@H]1CCC[C@H](C)C1 (relative stereo) [trans-1,3-dimethylcyclohexane] |
| 17 | CCC/C=C\CCC [cis-4-octene] |
| -6 | C/C=C/CCCC [trans-2-heptene] |
| 22 | CCCCC(C)CCC (centres undefined) [4-methyloctane] |
| 18 | CC#CCCCCC [2-octyne] |
| 25 | C1=CCCCCCC1 [cyclooctene] |
| -10 | CC#CC(C)(C)C [4,4-dimethyl-2-pentyne] |
| 31 | CCCC1CCCCC1 [n-propylcyclohexane] |
| 11 | CC(C)C(C)(C)C(C)C [2,3,3,4-tetramethylpentane] |
| 17 | CC/C=C\CCCC [cis-3-octene] |
| -34 | C#CC(C)(C)C [3,3-dimethyl-1-butyne] |
| 8 | CCC/C=C/CCC [trans-4-octene] |
| -17 | C=C(C)C(C)(C)C [2,3,3-trimethyl-1-butene] |
| -34 | C/C=C/C(C)C [trans-4-methyl-2-pentene] |
| -17 | C=C(C)C(C)CC (centres undefined) [2,3-dimethyl-1-pentene] |
| -26 | C/C=C\CCC [cis-2-hexene] |
| 11 | C[C@@H]1CCCC[C@@H]1C [cis-1,2-dimethylcyclohexane] |
| 3 | CCC(CC)C(C)C [3-ethyl-2-methylpentane] |
| 50 | Cc1cccc(C(C)C)c1 [m-isopropyltoluene] |

| SMILES | flash point [°C] |
| --- | --- |
| C=CCC=CC [1,4-hexadiene] | -25 |
| C1CC[C@H]2CCCC[C@@H]2C1 [trans-decalin] | 52 |

remark: another data set of the same source

| flash point [°C] | SMILES |
| --- | --- |
| 41 | CCCCC1CCCCC1 [n-butylcyclohexane] |
| -6 | CC(C)C(C)(C)C [2,2,3-trimethylbutane] |
| -34 | C=CC=C(C)C [4-methyl-1,3-pentadiene] |
| -28 | C=CC(C)(C)C [3,3-dimethyl-1-butene] |
| -3 | CCCC(C)C(C)C (centres undefined) [2,3-dimethylhexane] |
| 80 | C=CCCCCCCCCCCC [1-tridecene] |
| 26 | C1=CCCC=C1 [1,3-cyclohexadiene] |
| 28 | CC#CCCCCC [2-octyne] |
| 35 | CCCC1CCCCC1 [n-propylcyclohexane] |
| 12 | C[C@@H]1CCCC[C@@H]1C [cis-1,2-dimethylcyclohexane] |
